Data set [1] relates to mouse model of fragile X syndrome. Details: method as in PMID 32566916. As to conditions: cited from earlier work.
On the set-up of data set [2]: method as in PMID 26011730. As to conditions: cited from earlier work.
The target in data set [3] is T1, S5.42A 5-HT1A receptor (Homo sapiens, UniProt P08908, S199A).
T1 sequence (P08908 1-422 S199A): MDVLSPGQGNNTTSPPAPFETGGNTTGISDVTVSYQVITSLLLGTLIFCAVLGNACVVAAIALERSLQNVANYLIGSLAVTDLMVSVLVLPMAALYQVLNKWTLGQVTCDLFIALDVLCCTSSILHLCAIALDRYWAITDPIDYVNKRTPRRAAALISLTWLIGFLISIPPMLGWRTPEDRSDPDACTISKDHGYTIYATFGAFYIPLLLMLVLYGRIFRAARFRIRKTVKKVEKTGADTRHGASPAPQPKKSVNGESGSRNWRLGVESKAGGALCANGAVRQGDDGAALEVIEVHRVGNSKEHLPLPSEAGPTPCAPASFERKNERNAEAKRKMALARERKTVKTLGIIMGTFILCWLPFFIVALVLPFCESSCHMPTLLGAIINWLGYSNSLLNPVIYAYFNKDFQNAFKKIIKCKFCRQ
As to the kind of experiment: Radioligand binding, S5.42A 5-HT1A.
Description: 48 hours after transfection with the desired receptor construct, cells were isolated for saturation and competition binding assays as previously described.[47],[48],[57] Saturation and competition radioligand binding assays were conducted in an assay buffer consisting of 50 mM Tris HCl, 10 mM MgCl2, and 0.1 mM EDTA in filtered deionized water. […] Briefly, 5–10 μg of the receptor protein, as determined by a Thermo Fisher Pierce BCA protein assay kit, was incubated with 8 concentrations of radioligand in triplicate to determine total binding. […] Nonspecific binding was determined as above for saturation assays.
For radioligand binding data, nonspecific binding was subtracted from the total binding to get specific binding. Saturation binding data was fit to the “binding saturation-specific binding with hill slope” model. Competition binding data were fit to the “binding competition-one-site fit Ki” non-linear regression model and transformed to pKi values, reported as mean ± SD.
is 50 mM Tris HCl, 10 mM MgCl2 and 0.1 mM EDTA in filtered deionized water.

Another data set has as its target T2, Y5.38F 5-HT1A receptor (Homo sapiens, UniProt P08908, Y195F).
T2 sequence (P08908 1-422 Y195F): T1 sequence (P08908 1-422 S199A) with Y195F, A199S
Description: cAMP accumulation in HEK293T cells, Y5.38F 5-HT1A. As to conditions: point-mutated receptor, 3 independent experiments, read-out: pEC50 5-HT1A Receptor Y5.38F (converted). More on the design: mutated in house (Quikchange II) HTR01A0000; host or cells: HEK293T. It counts as cell-based. As to the method: (§1) Briefly, cells transfected with the desired receptor construct and compounds were incubated in the dark for 90 min at 37 °C. After incubation, cAMP detection reagents were added, and TR-FRET was used to quantify the cAMP produced.
(§2) The functional activity of compounds was determined by stimulating cells expressing the desired receptor with FSK and test compound in parallel with 12 known concentrations of cAMP. The known concentrations of cAMP were used to create a standard curve for each experiment that was used to interpolate the unknown values of cAMP in wells with test compounds. […] The EC50 and EMAX values were determined using the “dose response – log[agonist] vs response (three parameter)” nonlinear regression model in Prism and transformed to pEC50 values, reported as mean ± SD.
(§3) Summary of functional assay conditions at various 5-HT1 receptor point mutation constructs.
In general terms: Cyclic AMP is a second messenger, typically raised through Gs and lowered through Gi signalling.

For data set [4], the target named is T1, S5.42A 5-HT1A receptor. As to the kind of experiment: cAMP accumulation in HEK293T cells, S5.42A 5-HT1A. It is filed as cell-based. Details: mutated in house (Quikchange II) HTR01A0000; host or cells: HEK293T. The following applies: point-mutated receptor, 3 independent experiments, read-out: pEC50 5-HT1A Receptor S5.42A (converted). As to the method: as §1, §2, §3

Positions count from the first letter of the chain named. pKi: −log10 of the molar value.

Take `CN(C)[C@H]1CCc2c(cccc2-c2ccccc2F)C1` [(S)-FPT]: in data set [1], the prosocial behaviors result is on record as “increased”, the repetitive behaviors result is on record as “reduced” and the spontaneous seizures entry was “reduced”. Further, in data set [2], the oral activity entry is “orally active” and the sedation result is “did not cause sedation”.

What is called pKi is the negative decadic logarithm of the Ki, by convention in mol/L. Higher therefore signals a low Ki. On to `CN(C)[C@H]1CCc2c(cccc2-c2cccc3ccccc23)C1` [(S)-NAP], for which the pKi at S5.42A 5-HT1A receptor [3] was 7.20. Further, the EC50 at Y5.38F 5-HT1A receptor was 380 nM; at S5.42A 5-HT1A receptor [4], 363 nM.

`Fc1ccccc1-c1cccc2c1CC[C@H](N1CCCC1)C2` [(S)-PFPT] gave a pKi at S5.42A 5-HT1A receptor [3] of 8.83. The figures for the EC50 on Y5.38F 5-HT1A receptor and at S5.42A 5-HT1A receptor [4] were 2.09 nM and 1.62 nM, respectively.

The values are drawn from paper PMC10797628.
